Values joined by “and” are separate entries in the source; they are usually repeats but may differ in a detail not shown here. Equal entries are not always repeated. Toxic doses and inconclusive results are not listed. Numbered stars: 1 amine (or outer) side, 2 acyl side, 3 side chain; on linkers, the order of the positions; unused ones are H or OH. Bridge positions count the residues as written; N and C are the ends. Square brackets hold non-standard residues; d marks the D form. Peptide text beside a SMILES is read from it. I, II: the chains in the order shown. Actinocin(9to1) = Cc1c2oc3c(C)ccc(C(=O)[*:1])c3nc-2c(C(=O)[*:2])c(N)c1=O; X4 = O=C(C1CC(Cl)CN1[*:1])[*:2]; NMeV = CN[CH](C(=O)O)C(C)C; Sar = CNCC(=O)O
Test system: L1210 leukemia ip in BDF1 mice, survival T/C
Assay: NCI In Vivo Anticancer Drug Screen. Data for tumor model L1210 Leukemia (intraperitoneal) in B6D2F1 (BDF1) mice
Conditions: endpoint: mean survival time, higher = longer survival
How it was run: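 Tumor was transplanted into mice, which were then dosed with test compound or vehicle alone. Survival was recorded for each group, and the treated figure was expressed relative to the control figure.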

[1] = dose: 100.0 mg/kg/injection, schedule: Q01DX009 (ip), vehicle: saline with Tween-80
[2] = dose: 100.0 mg/kg/injection, schedule: Q04DX003 (ip), vehicle: saline with Tween-80
[3] = dose: 200.0 mg/kg/injection, schedule: Q01DX009 (ip), vehicle: saline with Tween-80
[4] = dose: 200.0 mg/kg/injection, schedule: Q04DX003 (ip), vehicle: saline with Tween-80
[5] = dose: 400.0 mg/kg/injection, schedule: Q04DX003 (ip), vehicle: saline with Tween-80
[6] = dose: 100.0 mg/kg/injection, schedule: Q04DX003 (ip), vehicle: saline
[7] = dose: 200.0 mg/kg/injection, schedule: Q04DX003 (ip), vehicle: saline
[8] = dose: 400.0 mg/kg/injection, schedule: Q04DX003 (ip), vehicle: saline
[9] = dose: 100.0 mg/kg/injection, schedule: Q04DX002 (ip), vehicle: Klucel (hydroxypropylcellulose) (HPC)
[10] = dose: 200.0 mg/kg/injection, schedule: Q04DX002 (ip), vehicle: Klucel (hydroxypropylcellulose) (HPC)
[11] = dose: 400.0 mg/kg/injection, schedule: Q04DX002 (ip), vehicle: Klucel (hydroxypropylcellulose) (HPC)

Cc1c2oc3c(C)ccc(C(=O)NC4C(=O)NC(C(C)C)C(=O)N5CC(Cl)CC5C(=O)N(C)CC(=O)N(C)C(C(C)C)C(=O)OC4C)c3nc-2c(C(=O)NC2C(=O)NC(C(C)C)C(=O)N3CC(Cl)CC3C(=O)N(C)CC(=O)N(C)C(C(C)C)C(=O)OC2C)c(N)c1=O (configuration not stated) (I: TV[X4][Sar][NMeV] / II: TV[X4][Sar][NMeV]; ester I:1-I:C, II:1-II:C; linker I:N-II:N via Actinocin(9to1); configuration not given here)
T/C (dose: 200.0 micrograms/kg/injection, schedule: Q01DX009 (ip), vehicle: saline + alcohol): 117 % of control | T/C (dose: 300.0 micrograms/kg/injection, schedule: Q01DX009 (ip), vehicle: saline + alcohol): 123 % of control | T/C (dose: 600.0 micrograms/kg/injection, schedule: Q01DX009 (ip), vehicle: saline + alcohol): 124 % of control | T/C (dose: 800.0 micrograms/kg/injection, schedule: Q01DX009 (ip), vehicle: saline + alcohol): 156 % of control | T/C (dose: 800.0 micrograms/kg/injection, schedule: Q04DX003 (ip), vehicle: saline + alcohol): 122 % of control | T/C (dose: 4800.0 micrograms/kg/injection, schedule: Q04DX003 (ip), vehicle: saline + alcohol): 121 % of control

Cc1cccnc1NS(=O)(=O)c1ccccc1
T/C [1]: 101 % of control | T/C [2]: 94 % of control | T/C [3]: 98 % of control | T/C [4]: 94 % of control | T/C (dose: 400.0 mg/kg/injection, schedule: Q01DX009 (ip), vehicle: saline with Tween-80): 102 % of control | T/C [5]: 94 % of control

Cc1nc(N)c(Cl)nc1C
T/C (dose: 50.0 mg/kg/injection, schedule: Q01DX009 (ip), vehicle: saline with Tween-80): 96 % of control | T/C [1]: 100 % of control and 104 % of control | T/C [2]: 102 % of control | T/C [3]: 97 % of control and 98 % of control | T/C [4]: 96 % of control | T/C [5]: 88 % of control

CN(C)CC(Cl)CCl (configuration not stated)
T/C [6]: 98 % of control | T/C [7]: 107 % of control | T/C [8]: 115 % of control

O=c1[nH]c(=O)c2n[nH]c(C3OCC(O)C3O)c2[nH]1 (configuration not stated)
T/C (dose: 100.0 mg/kg/injection, schedule: Q01DX005 (ip), vehicle: saline): 94 % of control | T/C (dose: 200.0 mg/kg/injection, schedule: Q01DX005 (ip), vehicle: saline): 97 % of control

CN(C)C(=O)c1cccc([N+](=O)[O-])c1
T/C [2]: 97 % of control | T/C [4]: 94 % of control

O=C(O)C12C3CCC(O3)C1(C(=O)O)C1CCC2O1 (configuration not stated)
T/C [9]: 104 % of control | T/C [10]: 104 % of control | T/C [11]: 104 % of control

CC(=O)CC(Cl)(C(F)(F)F)C(F)(F)F
T/C (dose: 50.0 mg/kg/injection, schedule: Q04DX003 (ip), vehicle: saline with Tween-80): 100 % of control | T/C [2]: 100 % of control | T/C [4]: 86 % of control | T/C [5]: 88 % of control

CCOC1(OCC)CS(=O)(=O)C1
T/C (dose: 25.0 mg/kg/injection, schedule: Q01DX009 (ip), vehicle: saline sonified): 100 % of control | T/C (dose: 50.0 mg/kg/injection, schedule: Q01DX009 (ip), vehicle: saline sonified): 95 % of control | T/C (dose: 100.0 mg/kg/injection, schedule: Q01DX009 (ip), vehicle: saline sonified): 106 % of control | T/C [6]: 109 % of control | T/C [7]: 117 % of control | T/C [8]: 112 % of control

CCCCCCCCCCC/C=N\N(C)C
T/C [9]: 96 % of control | T/C [10]: 92 % of control | T/C [11]: 103 % of control

O=c1[nH]c(/C=C/c2ccc(Cl)cc2)nc(O)c1-c1ccc(Cl)cc1
T/C (dose: 100.0 mg/kg/injection, schedule: Q01DX001 (ip), vehicle: saline): 104 % of control | T/C (dose: 100.0 mg/kg/injection, schedule: Q04DX003 (ip), vehicle: Klucel (hydroxypropylcellulose) (HPC)): 102 % of control | T/C (dose: 200.0 mg/kg/injection, schedule: Q01DX001 (ip), vehicle: saline): 98 % of control | T/C (dose: 200.0 mg/kg/injection, schedule: Q04DX003 (ip), vehicle: Klucel (hydroxypropylcellulose) (HPC)): 96 % of control | T/C (dose: 400.0 mg/kg/injection, schedule: Q01DX001 (ip), vehicle: saline): 93 % of control | T/C (dose: 400.0 mg/kg/injection, schedule: Q04DX003 (ip), vehicle: Klucel (hydroxypropylcellulose) (HPC)): 98 % of control
